In article PMC4975031, “A multifunctional GH39 glycoside hydrolase from the anaerobic gut fungus Orpinomyces sp. strain C1A” (PeerJ, 2016):
Values belong to the compound of their own block, whether it stands above or below them.

Columns and labels:
[1] = molecular target: T1, Bgxg1 (Pecoramyces ruminantium, UniProt A0A0U3AYH9); assay: p-nitrophenol release, Lineweaver-Burk; type: biochemical; conditions: pH 6.0, sodium acetate buffer, 39 °C; printed BDL (below detection limit, 500 nM)
T1 construct: codon-optimised fragment, 939 bp [sic], nucleotide positions 67-1,035 of transcript m.21910 (signal peptide predicted in full-length product)
T1 sequence (A0A0U3AYH9 23-335 limits assumed): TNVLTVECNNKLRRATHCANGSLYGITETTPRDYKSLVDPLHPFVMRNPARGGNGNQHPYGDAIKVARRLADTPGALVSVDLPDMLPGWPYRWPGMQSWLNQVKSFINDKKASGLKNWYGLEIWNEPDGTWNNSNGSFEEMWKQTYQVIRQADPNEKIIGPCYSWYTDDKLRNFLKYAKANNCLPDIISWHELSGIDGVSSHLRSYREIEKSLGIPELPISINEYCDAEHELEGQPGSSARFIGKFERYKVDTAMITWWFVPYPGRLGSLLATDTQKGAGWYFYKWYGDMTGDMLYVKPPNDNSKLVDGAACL
Source text: (§1) p-nitrophenol release, Lineweaver-Burk on Bgxg1

[2] = molecular target: T1, Bgxg1; assay: substrate competition: PNPG hydrolysis in presence of xylobiose; type: biochemical; conditions: read-out: Relative specific activity (%)
Source text: substrate competition: PNPG hydrolysis in presence of xylobiose on Bgxg1

[3] = system: T2, O=[N+]([O-])c1ccc(O[C@@H]2OC[C@@H](O)[C@H](O)[C@H]2O)cc1; assay: p-nitrophenol release, Lineweaver-Burk; type: biochemical, Pecoramyces ruminantium; conditions: pH 6.0, sodium acetate buffer, 39 °C
T2 construct: codon-optimised fragment, 939 bp [sic], nucleotide positions 67-1,035 of transcript m.21910 (signal peptide predicted in full-length product)
Source text: as §1

Km [1]: < 0.5 µM
Compound: O=[N+]([O-])c1ccc(O[C@@H]2O[C@H](CO)[C@@H](O)[C@H](O)[C@H]2O)cc1 [PNPG, p-nitrophenyl-β-D-glucopyranoside]

Km [1]: < 0.5 µM
Compound: O=[N+]([O-])c1ccc(O[C@@H]2O[C@H](CO)[C@H](O)[C@H](O)[C@H]2O)cc1 [PNPGal, p-nitrophenyl-β-D-galactopyranoside]

activity at 20000 µM [2]: 57.2%
Compound: OC1OC[C@@H](O[C@@H]2OC[C@@H](O)[C@H](O)[C@H]2O)[C@H](O)[C@H]1O (some centres unmarked) [xylobiose]

Compound: Bgxg1 (Pecoramyces ruminantium)
Km [3]: 4.85 ± 0.62 µM
Vmax [3]: 127 µmol/min/mg
